Our source for the EC50 and Lymphocyte counts values is US8575200B2, “Pyridin-2-yl derivatives as immunomodulating agents” (Actelion Pharmaceuticals Ltd, priority 2008, dated 2013).

pEC50: −log10 of the molar value. Marks after values point to notes of the source that are not given here.

The target of one assay is recombinant human S1P1 receptor (Homo sapiens, UniProt P21453). Put plainly: GTPγS assay to determine EC50 values. As to conditions: 35S-GTPγS binding, membrane preparations of CHO cells expressing recombinant human S1P1 receptor, agonistic activity. In kind it is biochemical. Here is the method: GTPγS binding assays are performed in 96 well microtiter plates (Nunc, 442587) in a final volume of 200 μl, using membrane preparations of CHO cells expressing recombinant human S1P1 receptor. Assay conditions are 20 mM Hepes (Fluka, 54461), 100 mM NaCl (Fluka, 71378), 5 mM MgCl2 (Fluka, 63064), 0.1% BSA (Calbiochem, 126609), 1 μM GDP (Sigma, G-7127), 2.5% DMSO (Fluka, 41644), […] ^35S-GTPγS (Amersham Biosciences, SJ1320). The pH is 7.4. Test compounds are dissolved and diluted in 100% DMSO and pre-incubated at room temperature for 30 min in 150 μl of the above assay buffer, in the absence of ^35S-GTPγS. After addition of 50 μl of ^35S-GTPγS, the assay is incubated for 1 h at rt. The assay is terminated by transfer of the reaction mixture to a Multiscreen plate (Millipore, MAHFC1H60) using a cell harvester from Packard Biosciences, and the plates are washed with ice-cold 10 mM Na2HPO4/NaH2PO4 (70%/30%), dried, sealed at the bottom and, after addition of 25 μl MicroScint20 (Packard Biosciences, order #6013621), sealed on the top. Membrane-bound ^35S-GTPγS is measured with a TopCount from Packard Biosciences.
recombinant human S1P1 receptor, sequence (P21453 whole entry): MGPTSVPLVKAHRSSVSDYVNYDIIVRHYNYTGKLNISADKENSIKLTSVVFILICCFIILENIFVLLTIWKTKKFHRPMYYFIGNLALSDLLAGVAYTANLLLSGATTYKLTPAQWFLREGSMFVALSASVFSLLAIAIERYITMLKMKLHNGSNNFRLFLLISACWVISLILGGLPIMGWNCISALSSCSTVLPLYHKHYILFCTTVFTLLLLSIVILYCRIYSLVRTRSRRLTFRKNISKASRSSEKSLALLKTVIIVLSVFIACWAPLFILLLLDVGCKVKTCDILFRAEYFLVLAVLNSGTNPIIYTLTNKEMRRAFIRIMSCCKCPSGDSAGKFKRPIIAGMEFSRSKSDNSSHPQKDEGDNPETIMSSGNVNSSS
EC50 is the concentration of agonist inducing 50% of the maximal specific ^35S-GTPγS binding. Specific binding is determined by subtracting non-specific binding from maximal binding. Maximal binding is the amount of cpm bound to the Multiscreen plate in the presence of 10 μM of S1P. Non-specific binding is the amount of binding in the absence of an agonist in the assay.
As to `COc1cc(CC(C)C)nc(-c2nc(-c3cc(C)c(OC[C@@H](O)CNC(=O)CO)c(C)c3)no2)c1` [Example 10], the pEC50 is 8.57.
On the same count and under the same terms, the same measure for `CCc1cc(-c2noc(-c3cc(OC)cc(CC(C)C)n3)n2)cc(C)c1OC[C@@H](O)CNC(=O)CO` [Example 17, N—((S)-3-{2-ethyl-4-[5-(6-isobutyl-4-methoxy-pyridin-2-yl)-[1,2,4]oxadiazol-3-yl]-6-methyl-phenoxy}-2-hydroxy-propyl)-2-hydroxy-acetamide]: 8.64; for `CCc1cc(-c2noc(-c3cc(C)c(CC(C)C)cn3)n2)cc(C)c1OC[C@H](O)CO` [Example 33, (R)-3-{2-ethyl-4-[5-(5-isobutyl-4-methyl-pyridin-2-yl)-[1,2,4]oxadiazol-3-yl]-6-methyl-phenoxy}-propane-1,2-diol]: 8.14.
For the compound `CCc1cc(-c2noc(-c3cc(C)c(CC(C)C)cn3)n2)cc(C)c1OC[C@@H](O)CO` [Example 34, (S)-3-{2-ethyl-4-[5-(5-isobutyl-4-methyl-pyridin-2-yl)-[1,2,4]oxadiazol-3-yl]-6-methyl-phenoxy}-propane-1,2-diol], the pEC50 is 8.04.
On to `CCc1cc(-c2noc(-c3cc(C)c(CC(C)C)cn3)n2)cc(C)c1CCC(=O)NCCC(=O)O` [Example 40, 3-(3-{2-Ethyl-4-[5-(5-isobutyl-4-methyl-pyridin-2-yl)-[1,2,4]oxadiazol-3-yl]-6-methyl-phenyl}-propionylamino)-propionic acid], for which the pEC50 is 8.48.
In the case of `CCc1cc(-c2noc(-c3cc(C)c(CC(C)C)cn3)n2)cc(C)c1OCCNCCC(=O)O` [Example 50, 3-(2-{2-Ethyl-4-[5-(5-isobutyl-4-methyl-pyridin-2-yl)-[1,2,4]oxadiazol-3-yl]-6-methyl-phenoxy}-ethylamino)-propionic acid], the pEC50 was 8.29.
The same measure, in the same setting: the same measure for `CCc1cc(-c2noc(-c3cc(C)c(CC(C)C)cn3)n2)cc(C)c1OCCNC(=O)CO` [Example 51, N-(2-{2-Ethyl-4-[5-(5-isobutyl-4-methyl-pyridin-2-yl)-[1,2,4]oxadiazol-3-yl]-6-methyl-phenoxy}-ethyl)-2-hydroxy-acetamide]: 8.06; for `CCc1cc(-c2noc(-c3cc(C)c(CC(C)C)cn3)n2)cc(C)c1OC(CO)CO` [Example 55, 2-{2-Ethyl-4-[5-(5-isobutyl-4-methyl-pyridin-2-yl)-[1,2,4]oxadiazol-3-yl]-6-methyl-phenoxy}-propane-1,3-diol]: 8.33.
On to `CCc1cc(-c2noc(-c3cc(C)c(CC(C)C)cn3)n2)cc(C)c1OC[C@@H](O)CNCCO` [Example 58, 1-{2-Ethyl-4-[5-(5-isobutyl-4-methyl-pyridin-2-yl)-[1,2,4]oxadiazol-3-yl]-6-methyl-phenoxy}-3-((2S)-2-hydroxy-ethylamino)-propan-2-ol], for which the pEC50 is 7.95.
The same measure, in the same setting: the same measure for `CCc1cc(-c2noc(-c3cc(C)c(CC(C)C)cn3)n2)cc(C)c1OC[C@@H](O)CNS(=O)(=O)CC` [Example 59, Ethanesulfonic acid ((2S)-3-{2-ethyl-4-[5-(5-isobutyl-4-methyl-pyridin-2-yl)-[1,2,4]oxadiazol-3-yl]-6-methyl-phenoxy}-2-hydroxy-propyl)-amide]: 7.92; for `CCc1cc(-c2noc(-c3cc(C)c(CC(C)C)cn3)n2)cc(C)c1OC[C@@H](O)CNCCC(=O)O` [Example 61, 3-((2S)-3-{2-Ethyl-4-[5-(5-isobutyl-4-methyl-pyridin-2-yl)-[1,2,4]oxadiazol-3-yl]-6-methyl-phenoxy}-2-hydroxy-propylamino)-propionic acid]: 8.64; for `CCc1cc(-c2noc(-c3cc(C)cc(C(CC)CC)n3)n2)cc(C)c1OC[C@@H](O)CO` [Example 62, (S)-3-(2-Ethyl-4-{5-[6-(1-ethyl-propyl)-4-methyl-pyridin-2-yl]-[1,2,4]oxadiazol-3-yl}-6-methyl-phenoxy)-propane-1,2-diol]: 8.66.
Same read-out and setting: the same measure for `CCC(CC)c1cc(OC)cc(-c2nc(-c3cc(C)c(OC[C@@H](O)CO)c(Cl)c3)no2)n1` [Example 65, (S)-3-(2-chloro-4-{5-[6-(1-ethyl-propyl)-4-methoxy-pyridin-2-yl]-[1,2,4]oxadiazol-3-yl}-6-methyl-phenoxy)-propane-1,2-diol]: 8.03; for `CCc1cc(-c2noc(-c3cc(OC)cc(C(CC)CC)n3)n2)cc(C)c1OC[C@@H](O)CNC(=O)CO` [Example 69, N—[(S)-3-(2-ethyl-4-{5-[6-(1-ethyl-propyl)-4-methoxy-pyridin-2-yl]-[1,2,4]oxadiazol-3-yl}-6-methyl-phenoxy)-2-hydroxy-propyl]-2-hydroxy-acetamide]: 8.51.
On the same count and under the same terms, the same measure for `CCC(CC)c1cc(OC)cc(-c2nc(-c3cc(C)c(OC[C@@H](O)CNC(=O)CO)c(C)c3)no2)n1` [Example 70, N—[(S)-3-(4-{5-[6-(1-ethyl-propyl)-4-methoxy-pyridin-2-yl]-[1,2,4]oxadiazol-3-yl}-2,6-dimethyl-phenoxy)-2-hydroxy-propyl]-2-hydroxy-acetamide]: 8.55.
Regarding `CCC(CC)c1cc(OC)cc(-c2nc(-c3cc(C)c(OC[C@@H](O)CNC(=O)CO)c(Cl)c3)no2)n1` [Example 71, N—[(S)-3-(2-chloro-4-{5-[6-(1-ethyl-propyl)-4-methoxy-pyridin-2-yl]-[1,2,4]oxadiazol-3-yl}-6-methyl-phenoxy)-2-hydroxy-propyl]-2-hydroxy-acetamide], the pEC50 is 9.10.
Same read-out and setting: the figure for `CCC(CC)c1cc(OC)cc(-c2nc(-c3cc(C)c(OC[C@@H](O)CNC(=O)CO)c(OC)c3)no2)n1` [Example 72, N—[(S)-3-(4-{5-[6-(1-ethyl-propyl)-4-methoxy-pyridin-2-yl]-[1,2,4]oxadiazol-3-yl}-2-methoxy-6-methyl-phenoxy)-2-hydroxy-propyl]-2-hydroxy-acetamide] is 8.06; for `CCc1cc(-c2nc(-c3cc(C)c(CC(C)C)cn3)no2)cc(C)c1OC[C@@H](O)CNC(=O)CO` [Example 74, N-((2S)-3-{2-Ethyl-4-[3-(5-isobutyl-4-methyl-pyridin-2-yl)-[1,2,4]oxadiazol-5-yl]-6-methyl-phenoxy}-2-hydroxy-propyl)-2-hydroxy-acetamide] it is 8.05.

The same assay, now with this note: 35S-GTPγS binding, membranes of CHO cells expressing recombinant human S1P1 receptor.
For `CCc1cc(-c2nnc(-c3cc(C)c(CC(C)C)cn3)o2)cc(C)c1OC[C@@H](O)CN` [Example 43], the pEC50 is less than 5.00.

The next assay relates to circulating lymphocytes. In words: Assessment of in vivo efficacy: circulating lymphocytes after oral administration. Also noted: species or system normotensive male Wistar rats. As to conditions: 3 h after administration; oral 10 mg/kg, male Wistar rats, compared to vehicle group. As to the method:
The efficacy of the compounds of Formula (I) is assessed by measuring the circulating lymphocytes after oral administration of 3 to 30 mg/kg of a compound of Formula (I) to normotensive male Wistar rats. The animals are housed in climate-controlled conditions with a 12 h-light/dark cycle, and have free access to normal rat chow and drinking water. Blood is collected before and 3, 6 and 24 h after drug administration. Full blood is subjected to hematology using Advia Hematology system (Bayer Diagnostics, Zürich, Switzerland).
All data are presented as mean±SEM. Statistical analyses are performed by analysis of variance (ANOVA) using Statistica (StatSoft) and the Student-Newman-Keuls procedure for multiple comparisons. The null hypothesis is rejected when p<0.05.
Lymphocyte counts 6 h after oral administration have been measured for 7 of the exemplified compounds (Table 2) and are in the range of −35% to −74% with an average of −64%.
Turning to `CCc1cc(-c2noc(-c3cc(C)c(CC(C)C)cn3)n2)cc(C)c1OC(CO)CO` [Example 55, 2-{2-Ethyl-4-[5-(5-isobutyl-4-methyl-pyridin-2-yl)-[1,2,4]oxadiazol-3-yl]-6-methyl-phenoxy}-propane-1,3-diol], the Lymphocyte counts was −65%*.

Still in this assay, the particulars now being: 6 h after oral administration of 10 mg/kg to male Wistar rats, compared to vehicle group.
In the case of `CCc1cc(-c2noc(-c3cc(C)cc(CC(C)C)n3)n2)cc(C)c1OC[C@@H](O)CNC(=O)CO` [Example 1, N—((S)-3-{2-Ethyl-4-[5-(6-isobutyl-4-methyl-pyridin-2-yl)-[1,2,4]oxadiazol-3-yl]-6-methyl-phenoxy}-2-hydroxy-propyl)-2-hydroxy-acetamide], the Lymphocyte counts is recorded as −74%.
`CCc1cc(-c2noc(-c3cc(CC(C)C)cc(C)n3)n2)cc(C)c1OC[C@@H](O)CNC(=O)CO` [Example 5, N—((S)-3-{2-Ethyl-4-[5-(4-isobutyl-6-methyl-pyridin-2-yl)-[1,2,4]oxadiazol-3-yl]-6-methyl-phenoxy}-2-hydroxy-propyl)-2-hydroxy-acetamide]: the Lymphocyte counts was −67%.
On to `CCc1cc(-c2noc(-c3cc(OC)cc(CC(C)C)n3)n2)cc(C)c1OC[C@@H](O)CNC(=O)CO` [Example 17, N—((S)-3-{2-ethyl-4-[5-(6-isobutyl-4-methoxy-pyridin-2-yl)-[1,2,4]oxadiazol-3-yl]-6-methyl-phenoxy}-2-hydroxy-propyl)-2-hydroxy-acetamide], for which the Lymphocyte counts is listed as −66%.
Still for that read-out and setting: the same measure for `CCc1cc(-c2noc(-c3cc(C)c(CC(C)C)cn3)n2)cc(C)c1OC[C@@H](O)CO` [Example 34, (S)-3-{2-ethyl-4-[5-(5-isobutyl-4-methyl-pyridin-2-yl)-[1,2,4]oxadiazol-3-yl]-6-methyl-phenoxy}-propane-1,2-diol]: −70%; for `CCc1cc(-c2noc(-c3cc(C)c(CC(C)C)cn3)n2)cc(C)c1OC[C@@H](O)CNC(=O)CO` [Example 36, N—((S)-3-{2-ethyl-4-[5-(5-isobutyl-4-methyl-pyridin-2-yl)-[1,2,4]oxadiazol-3-yl]-6-methyl-phenoxy}-2-hydroxy-propyl)-2-hydroxy-acetamide]: −74%.
On to `CCc1cc(-c2noc(-c3cc(C)c(CC(C)C)cn3)n2)cc(C)c1CCC(=O)NCCC(=O)O` [Example 40, 3-(3-{2-Ethyl-4-[5-(5-isobutyl-4-methyl-pyridin-2-yl)-[1,2,4]oxadiazol-3-yl]-6-methyl-phenyl}-propionylamino)-propionic acid], for which the Lymphocyte counts was −35%.
